From ChEMBL document CHEMBL1126831, “A structure-activity study of four dopamine D-1 and D-2 receptor antagonists, representing the phenylindan, -indene, and -indole structural classes of compounds” (J Med Chem, 1993) come the findings set out here.

One assay deals with D(2) dopamine receptor (Rattus norvegicus, UniProt P61169). Put plainly: Binding affinity towardst dopamine D2 receptor by displacement of [3H]-SPI radioligand in rat striatal membranes. The class given is cell membranes, Membrane.
For a further assay, the target named is D(1A) dopamine receptor (Rattus norvegicus, UniProt P18901). Put plainly: Binding affinity towards dopamine receptor D1 by displacement of [3H]-SCH- radioligand in rat striatal membranes. The class given is cell membranes, Membrane.
Chain of D(1A) dopamine receptor (P18901 whole entry): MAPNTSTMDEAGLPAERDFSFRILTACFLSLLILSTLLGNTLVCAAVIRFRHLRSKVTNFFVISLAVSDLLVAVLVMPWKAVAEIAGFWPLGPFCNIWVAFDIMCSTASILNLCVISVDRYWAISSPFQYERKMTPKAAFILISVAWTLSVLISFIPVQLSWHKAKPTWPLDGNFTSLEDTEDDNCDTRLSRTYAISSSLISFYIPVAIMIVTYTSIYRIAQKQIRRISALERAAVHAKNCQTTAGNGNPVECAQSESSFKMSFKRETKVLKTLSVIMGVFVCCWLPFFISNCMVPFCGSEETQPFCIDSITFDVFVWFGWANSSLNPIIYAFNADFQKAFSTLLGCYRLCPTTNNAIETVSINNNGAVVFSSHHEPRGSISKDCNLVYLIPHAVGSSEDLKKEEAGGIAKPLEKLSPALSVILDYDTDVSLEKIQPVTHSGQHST

Chain of D(2) dopamine receptor (P61169 whole entry): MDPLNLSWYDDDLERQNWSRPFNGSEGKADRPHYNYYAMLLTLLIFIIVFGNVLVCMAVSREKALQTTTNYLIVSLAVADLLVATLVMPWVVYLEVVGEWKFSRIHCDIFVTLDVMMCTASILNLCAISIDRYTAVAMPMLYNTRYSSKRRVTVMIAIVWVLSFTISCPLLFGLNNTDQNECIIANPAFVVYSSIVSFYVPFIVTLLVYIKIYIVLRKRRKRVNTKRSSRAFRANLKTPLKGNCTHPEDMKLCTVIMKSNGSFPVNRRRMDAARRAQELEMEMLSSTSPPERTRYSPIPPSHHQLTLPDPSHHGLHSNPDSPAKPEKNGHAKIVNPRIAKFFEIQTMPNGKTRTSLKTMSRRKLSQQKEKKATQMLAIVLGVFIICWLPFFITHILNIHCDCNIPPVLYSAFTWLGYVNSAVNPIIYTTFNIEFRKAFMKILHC

As to `CN1CCC(C2=CC(c3ccc(F)cc3)c3ccc(Cl)cc32)CC1` (stereo not drawn), the IC50 was 19 nM at D(2) dopamine receptor and 12 nM at D(1A) dopamine receptor.
On the same counts, the results for `CN1CC=C(C2=CC(c3ccc(F)cc3)c3ccc(Cl)cc32)CC1` (stereo not drawn) are 5.1 nM and 23 nM.
The corresponding values for `CN1CCN(C2CC(c3ccc(F)cc3)c3ccc(Cl)cc32)CC1` (stereo not drawn) are 12 nM and 9.5 nM.
At D(1A) dopamine receptor, `OCCN1CCN([C@@H]2C[C@@H](c3ccc(F)cc3)c3ccc(C(F)(F)F)cc32)CC1` [TEFLUDAZINE] gave an IC50 of 19 nM.
The same measure, in the same setting: to `CN1CC=C(c2cn(-c3ccc(F)cc3)c3ccc(Cl)cc23)CC1` belongs 9.8 nM.
